In one data set the target is BCL-2 (Homo sapiens (Human), UniProt P10415). Put plainly: BCL-2 TR-FRET Assay (primary PPI inhibition). The data set is classed as binding. The settings on record: 60 min incubation, read-out: BCL2 IC50. An outline of the steps:
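His-tagged BCL-2 (3 ng) with anti-His Tb donor, dye-labeled acceptor and BCL-2 peptide ligand; compound added at 200× stock, final DMSO 0.5%. 60 min incubation, then TR-FRET read at 340 nm excitation, 620/665 nm emission, 60 µs delay, 500 µs integration.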

In another data set the test system is RS4-11 cells. Briefly: Cell viability assay (CellTiter-Glo), RS4-11. The settings on record: 3 days of incubation. In kind it is cell-based. An outline of the steps:
(§1)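 4000 cells/well in DMEM (HEK293, adhered overnight) or RPMI (RS4-11, MOLT-4) with 10% FBS; compounds added at 0.2% DMSO final. After 3 days, viability read by CellTiter-Glo luminescence.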
(ATP-based viability assays read luminescence as a measure of living cells.)

Data set [1] has as its system caspase-3 and -7 activities in RS4-11 cells. Put plainly: Caspase-3/7 activation (Caspase-Glo 3/7) in RS4-11 cells. In kind it is cell-based. The settings on record: 3.5 h, read-out: Cas-3/7 EC50. An outline of the steps: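 RS4-11 cells exposed to graded compound concentrations for 3.5 h at 37 °C, 5% CO2. Caspase-3/7 activity then read as luminescence after 30 min at rt with a DEVD-based luminogenic substrate reagent.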

The subject of a further data set is HEK293 cells. Put plainly: Cell viability assay (CellTiter-Glo), HEK293. In kind it is cell-based. The settings on record: 3 days of incubation. The method in brief: as §1
In another data set the test system is MOLT-4 cells. Put plainly: Cell viability assay (CellTiter-Glo), MOLT-4. In kind it is cell-based. The settings on record: 3 days of incubation. The method in brief: as §1
The target in the next data set is BCL-xL (Homo sapiens (Human), UniProt Q07817). Put plainly: BCL-xL TR-FRET Assay (primary PPI inhibition). The data set is classed as binding. The settings on record: 60 min incubation, read-out: BCLxL IC50. The method in brief: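 TR-FRET competition of His-tagged BCL-xL (10.5 ng) binding to dye-labeled peptide ligand, with anti-His Tb donor; compound added from 200× stock, 0.5% DMSO final. After 60 min incubation, read at 340 nm excitation, 620/665 nm emission, 60 µs delay, 500 µs integration.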
Chain of BCL-xL (Q07817 whole entry): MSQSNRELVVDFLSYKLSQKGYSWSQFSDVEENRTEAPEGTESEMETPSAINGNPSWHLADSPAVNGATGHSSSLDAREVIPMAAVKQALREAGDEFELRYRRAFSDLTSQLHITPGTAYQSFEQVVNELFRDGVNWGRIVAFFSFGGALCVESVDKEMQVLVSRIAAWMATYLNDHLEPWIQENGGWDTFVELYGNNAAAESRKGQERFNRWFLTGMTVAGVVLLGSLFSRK

A short description of data set [2]: Cell viability assay (CellTiter-Glo), HEK293. In kind it is cell-based. The settings on record: human, HEK293 cells, 3 days of incubation. The method in brief:
as §1

The next data set addresses BCL-2 [G101V] (Homo sapiens (Human), UniProt P10415, G101V). Put plainly: BCL-2 [G101V] TR-FRET Assay (primary PPI inhibition). In kind it is binding. The settings on record: 60 min incubation, read-out: BCL2[G101V] IC50. On the procedure:
Example C. BCL-2 [G101V]TR-FRET Assay
The following assay concentrations and times were used: 0.22 ng/μl of BCL-2 (SinoBiological, #10195-H08E1), 5 μL of 1:100 anti-His Tb-labeled donor, 5 μL of 1:100 Dye-labeled acceptor, 5 μL of 1:40 BCL-2 Peptide Ligand (BPS Bioscience, #50223), and 2 μL of 200× test compound, with 60 min incubation time (final concentration of DMSO 0.5%). The results of the assay were read using a plate reader with the following parameters: TR FRET, 340ex/620 and 665em; 60 usec Delay; and 500 usec integration.
Instrumentation: CLARIOstar Plus (BMG LABTECH); Biomek FX for liquid handling (Beckman Coulter).
On the technique in general: Time-resolved FRET reads energy transfer from a long-lived donor to a nearby acceptor.

Each structure is given as a SMILES string. Where two headings read alike, the source gives them in different places.

For orientation: IC50 means the concentration at which inhibition is half-maximal. One may read the CC50 as the concentration that lowers cell viability or growth by half. A high value points to lower toxicity to the cells. Turning to `COc1cccc(CN(C(=O)c2cc(-c3cc(Cl)c(F)cc3C(=O)N3Cc4ccccc4C[C@H]3CN3CCOCC3)n(C)c2C)c2ccc(C#N)cc2)c1C` [Compound 29, 5-[5-chloro-4-fluoro-2-[(3S)-3-(morpholinomethyl)-3,4-dihydro-1H-isoquinoline-2-carbonyl]phenyl]-N-(4-cyanophenyl)-N-[(3-methoxy-2-methyl-phenyl)methyl]-1,2-dimethyl-pyrrole-3-carboxamide], on BCL-2, the IC50 fell in the range of 10 to 50 nM. Also, the CC50 in the data set with RS4-11 cells (Homo sapiens, RS4-11, 72 h) was 100 to 200 nM; in the data set with HEK293 cells, greater than 25000 nM; in the data set on MOLT-4 cells (Homo sapiens, 72 h) it was greater than 10000 nM. Also, the EC50 in data set [1] (Homo sapiens) was greater than 500 nM.
For the compound `Cc1c(C(=O)N(Cc2ccccc2C#N)c2ccc3[nH]ncc3c2)cc(-c2cc(Cl)ccc2C(=O)N2Cc3ccccc3C[C@H]2CN2CCOCC2)n1C` [Compound 68, 5-[5-chloro-2-[(3S)-3-(morpholinomethyl)-3,4-dihydro-1H-isoquinoline-2-carbonyl]phenyl]-N-[(2-cyanophenyl)methyl]-N-(1H-indazol-5-yl)-1,2-dimethyl-pyrrole-3-carboxamide], the values for the IC50 on BCL-2, on BCL-xL and at BCL-2 [G101V] were 10 to 50 nM, greater than 5000 nM and greater than 1000 nM, respectively. In addition, the CC50 with RS4-11 cells (Homo sapiens, RS4-11, 72 h) was greater than 200 nM; in the data set with MOLT-4 cells (Homo sapiens, 72 h), greater than 10000 nM. Besides, the EC50 in data set [1] (Homo sapiens) is greater than 500 nM. The CC50 at 3 days in data set [2] was greater than 25000 nM.
Take `COc1cccc(CN(C(=O)c2cc(-c3cc(Cl)ccc3C(=O)N3Cc4ccccc4C[C@H]3CN3CCOCC3)n(C)c2C)c2ccc3[nH]ncc3c2)c1C` [Compound 70, 5-[5-chloro-2-[(3S)-3-(morpholinomethyl)-3,4-dihydro-1H-isoquinoline-2-carbonyl]phenyl]-N-(1H-indazol-5-yl)-N-[(3-methoxy-2-methyl-phenyl)methyl]-1,2-dimethyl-pyrrole-3-carboxamide]: the figures for the IC50 on BCL-2, at BCL-xL and at BCL-2 [G101V] were 5 to 10 nM, greater than 5000 nM and greater than 1000 nM, respectively. In addition, the cytotoxic concentration (CC50) is greater than 200 nM with RS4-11 cells (Homo sapiens, RS4-11, 72 h) and no more than 5000 nM with MOLT-4 cells (Homo sapiens, 72 h). Moreover, the EC50 in data set [1] (Homo sapiens) is greater than 500 nM. In data set [2], this compound had a CC50 at 3 days greater than 25000 nM.
Regarding `COc1cccc(CN(C(=O)c2cc(-c3cc(Cl)c(F)cc3C(=O)N3Cc4ccccc4C[C@H]3CN3CCOCC3)n(C)c2C)c2ccc(C#N)cc2)c1C` [Compound 73, 5-[5-chloro-4-fluoro-2-[(3S)-3-(morpholinomethyl)-3,4-dihydro-1H-isoquinoline-2-carbonyl]phenyl]-N-(4-cyanophenyl)-N-[(3-methoxy-2-methyl-phenyl)methyl]-1,2-dimethyl-pyrrole-3-carboxamide], the IC50 at BCL-2 was greater than 50 nM; on BCL-xL it was 2000 to 5000 nM. The CC50 with RS4-11 cells was greater than 200 nM; in the data set with HEK293 cells, 10000 to 25000 nM; in the data set on MOLT-4 cells, greater than 10000 nM. For the same compound, the EC50 in data set [1] is greater than 500 nM.

Values taken from US20250115577A1, “BCL-2 Inhibitors” (Eil Therapeutics, Inc., priority 2021, published 2025).
